Laboratory results from the supplement of paper PMC4862054.

Assays:
BT-549 [1] = test: normalised viability (% of control), CellTiter-Blue; higher = more viable cells (about 100 = DMSO control); settings: 10 nM; incubation time: 72 h
Protocol: (§1)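 DSRT, CellTiter-Blue viability, 72 h incubation. Signal is normalised to DMSO and benzethonium chloride controls. Value is the normalised response at dose 3.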

CAL-148 [2] = test: as above; settings: 1 nM; incubation time: 72 h
Protocol: as §1

MDA-MB-453 [3] = test: as above; settings: 1 nM; incubation time: 72 h
Protocol: as §1

MFM-223 [4] = test: as above; settings: 10 nM; incubation time: 72 h
Protocol: as §1

BT-474 = test: normalised viability (% of control), CellTiter-Blue; higher = more viable cells (about 100 = DMSO control); settings: incubation time: 72 h
How it was run: (§2)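 Each entry is normalised viability at a single listed concentration within a series. It comes from breast cancer cell lines incubated 72 h with compound in 384-well plates, then measured with CellTiter-Blue fluorescence at 560/590 nm. Every plate was normalised between vehicle (100) and a positive kill control (0).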

BT-549 [5] = test: as above; settings: incubation time: 72 h
How it was run: as §2

CAL-120 [6] = test: as above; settings: incubation time: 72 h
How it was run: as §2

CAL-148 [7] = test: as above; settings: incubation time: 72 h
How it was run: as §2

CAL-51 = test: as above; settings: incubation time: 72 h
How it was run: as §2

CAL-85-1 = test: as above; settings: incubation time: 72 h
How it was run: as §2

DU-4475 = test: as above; settings: incubation time: 72 h
How it was run: as §2

HCC1143 = test: as above; settings: incubation time: 72 h
How it was run: as §2

HCC1599 = test: as above; settings: incubation time: 72 h
How it was run: as §2

HCC1937 = test: as above; settings: incubation time: 72 h
How it was run: as §2

HDQ-P1 = test: as above; settings: incubation time: 72 h
How it was run: as §2

Hs578T = test: as above; settings: incubation time: 72 h
How it was run: as §2

MDA-MB-231 = test: as above; settings: incubation time: 72 h
How it was run: as §2

MDA-MB-436 = test: as above; settings: incubation time: 72 h
How it was run: as §2

MDA-MB-453 [8] = test: as above; settings: incubation time: 72 h
How it was run: as §2

MDA-MB-468 = test: as above; settings: incubation time: 72 h
How it was run: as §2

MFM-223 [9] = test: as above; settings: incubation time: 72 h
How it was run: as §2

SK-BR-3 = test: as above; settings: incubation time: 72 h
How it was run: as §2

CAL-120 [10] = test: drug sensitivity score (DSS), CellTox Green (DSS (AUC-based score)); higher = stronger drug effect (viability inhibition or cytotoxicity); extreme values may be limits of the assay; settings: incubation time: 72 h
How it was run: (§3)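 For 72 h, breast cancer cell lines seeded at 20 µl suspension per well in 384-well plates were incubated with compound at 5 concentrations in 10-fold steps spanning a 10,000-fold range that differed by compound. The first reading was CellTox Green fluorescence at 485/520 nm, and the second was CellTiter-Glo luminescence after 10 min at room temperature. Both were normalised per plate to 0.1 % DMSO and a positive kill control, and the drug sensitivity score was obtained from the area under the fitted dose-response curve.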

CAL-148 [11] = test: as above; settings: incubation time: 72 h
How it was run: as §3

## Cc1ccc(C(=O)N(CCCN)[C@@H](c2oc3cc(Cl)ccc3c(=O)c2Cc2ccccc2)C(C)C)cc1
BT-549 [1]
  normalised viability: 27.4%
CAL-148 [2]
  normalised viability: 92.5%
MDA-MB-453 [3]
  normalised viability: 112%
MFM-223 [4]
  normalised viability: 41.6%
BT-474; 1 nM
  normalised viability: 117%
BT-474; 100 nM
  normalised viability: 27.5%
BT-474; 1000 nM
  normalised viability: 28.7%
BT-549 [5]; 1 nM
  normalised viability: 87.3%
BT-549 [5]; 100 nM
  normalised viability: 25.1%
BT-549 [5]; 1000 nM
  normalised viability: 34.8%
CAL-120 [6]; 1 nM
  normalised viability: 53%
CAL-120 [6]; 100 nM
  normalised viability: 27.8%
CAL-120 [6]; 1000 nM
  normalised viability: 26.7%
CAL-148 [7]; 0.3 nM
  normalised viability: 93%
CAL-148 [7]; 3 nM
  normalised viability: 106%
CAL-148 [7]; 10 nM
  normalised viability: 16.1%
CAL-51; 0.3 nM
  normalised viability: 106%
CAL-51; 3 nM
  normalised viability: 101%
CAL-51; 10 nM
  normalised viability: 38.6%
CAL-85-1; 0.3 nM
  normalised viability: 92.9%
CAL-85-1; 3 nM
  normalised viability: 90.1%
CAL-85-1; 10 nM
  normalised viability: 33%
DU-4475; 0.3 nM
  normalised viability: 91.4%
DU-4475; 3 nM
  normalised viability: 108%
DU-4475; 10 nM
  normalised viability: 52.9%
HCC1143; 1 nM
  normalised viability: 83.7%
HCC1143; 100 nM
  normalised viability: 43.2%
HCC1143; 1000 nM
  normalised viability: 37.5%
HCC1599; 1 nM
  normalised viability: 97.2%
HCC1599; 100 nM
  normalised viability: 94.1%
HCC1599; 1000 nM
  normalised viability: 81.7%
HCC1937; 1 nM
  normalised viability: 51.2%
HCC1937; 100 nM
  normalised viability: 26.6%
HCC1937; 1000 nM
  normalised viability: 22.3%
HDQ-P1; 0.3 nM
  normalised viability: 128%
HDQ-P1; 3 nM
  normalised viability: 75.8%
HDQ-P1; 10 nM
  normalised viability: 59.1%
Hs578T; 1 nM
  normalised viability: 102%
Hs578T; 100 nM
  normalised viability: 13.6%
Hs578T; 1000 nM
  normalised viability: 13.6%
MDA-MB-231; 1 nM
  normalised viability: 37.1%
MDA-MB-231; 100 nM
  normalised viability: 25.8%
MDA-MB-231; 1000 nM
  normalised viability: 24.2%
MDA-MB-436; 1 nM
  normalised viability: 97.8%
MDA-MB-436; 100 nM
  normalised viability: 60.6%
MDA-MB-436; 1000 nM
  normalised viability: 59.2%
MDA-MB-453 [8]; 0.3 nM
  normalised viability: 123%
MDA-MB-453 [8]; 3 nM
  normalised viability: 103%
MDA-MB-453 [8]; 10 nM
  normalised viability: 23.8%
MDA-MB-468; 1 nM
  normalised viability: 88.4%
MDA-MB-468; 100 nM
  normalised viability: 26.5%
MDA-MB-468; 1000 nM
  normalised viability: 36.3%
MFM-223 [9]; 1 nM
  normalised viability: 105%
MFM-223 [9]; 100 nM
  normalised viability: 43.4%
MFM-223 [9]; 1000 nM
  normalised viability: 40.6%
SK-BR-3; 1 nM
  normalised viability: 45%
SK-BR-3; 100 nM
  normalised viability: 20.8%
SK-BR-3; 1000 nM
  normalised viability: 18.2%
CAL-120 [10]
  drug sensitivity score: 0
CAL-148 [11]
  drug sensitivity score: 0

## O=C(O)c1ccc(-c2c[nH]c3ncc(-c4ccccc4)cc23)cc1C1CCCC1
CAL-120 [10]
  drug sensitivity score: 0
CAL-148 [11]
  drug sensitivity score: 0

## NC(=O)Nc1cc(-c2cccc(F)c2)sc1C(=O)N[C@H]1CCCNC1 [AZD7762]
CAL-120 [10]
  drug sensitivity score: 0
CAL-148 [11]
  drug sensitivity score: 0
